Target: T1, 5-lipoxygenase (ALOX5) (Homo sapiens, UniProt P09917)
T1 sequence (P09917 1-674): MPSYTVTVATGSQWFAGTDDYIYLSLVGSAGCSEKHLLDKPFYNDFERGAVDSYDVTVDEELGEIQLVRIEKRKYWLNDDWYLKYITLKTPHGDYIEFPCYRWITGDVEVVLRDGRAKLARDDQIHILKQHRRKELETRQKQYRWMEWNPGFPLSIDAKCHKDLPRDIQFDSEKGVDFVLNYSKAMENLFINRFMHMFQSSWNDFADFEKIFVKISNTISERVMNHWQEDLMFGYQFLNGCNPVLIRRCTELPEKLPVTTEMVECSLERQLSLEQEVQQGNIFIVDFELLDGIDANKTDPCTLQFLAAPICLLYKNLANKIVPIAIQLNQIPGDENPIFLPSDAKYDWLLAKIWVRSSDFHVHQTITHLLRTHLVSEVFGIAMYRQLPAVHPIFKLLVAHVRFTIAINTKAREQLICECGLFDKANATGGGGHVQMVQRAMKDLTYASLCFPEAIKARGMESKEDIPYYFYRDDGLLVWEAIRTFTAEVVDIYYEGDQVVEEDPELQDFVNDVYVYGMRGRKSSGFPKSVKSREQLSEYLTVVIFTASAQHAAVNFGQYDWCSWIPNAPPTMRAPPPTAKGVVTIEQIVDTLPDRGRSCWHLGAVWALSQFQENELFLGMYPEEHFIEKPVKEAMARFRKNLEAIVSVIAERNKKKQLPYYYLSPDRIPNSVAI
Assay: enzyme kinetics of human recombinant ALOX5 at varying AA ([…])
Type: biochemical

CCCCC/C=C\C/C=C\C/C=C\C/C=C\CCCC(=O)O [AA/20:4, 5Z,8Z,11Z,14Z‐eicosatetraenoic acid]
enzyme kinetics of human recombinant ALOX5 at varying AA (3-300 μM): Lineweaver–Burk plot generated from activity data of human recombinant ALOX5

From paper PMC13483160, “Reorganization of Innate Immune Cell Lipid Profiles by Bioinspired Meroterpenoids to Limit Inflammation” (Advanced Science, 2026)
